Tests used:
[1] = system: normal C57BL/6J splenic B-cells (AID+/+) versus splenic B-cells from AID−/− mice; assay: screening of DIDS derivatives, MultiTox-Fluor Multiplex Cytotoxicity Assay; format: cell-based, mouse; settings: 10, 50 or 150 μM, 4 days of stimulation with anti-CD40 plus IL-4
Procedure: To identify bioactive derivatives of DIDS, a library of 10^5 chemical variants of DIDS was generated by replacing the sulfonate or isothiocyanate group with other chemical entities, or by altering the double bond joining the two rings in the stilbene backbone. All compounds were resuspended in dimethyl sulfoxide (DMSO) at a stock concentration of […], and used by serial dilution to generate working concentrations of 10, 50, or 150 μM. These were individually pipetted into 96-well microtiter culture dishes in duplicate, generating two plates of 10 μM, two plates of 50 μM, and two plates of 150 μM compounds. In each set, one plate was seeded with 100,000 normal C57BL/6J splenic B-cells (AID+/+) isolated by magnetic bead based sorting to enrich for B220+ IgM+ B-cells; and one plate was seeded with 100,000 splenic B-cells from AID−/− mice identically isolated. Each culture was stimulated on day 0 by addition of 1 μg/ml anti-CD40 plus 25 ng/ml IL-4 to induce proliferation and class-switch recombination. After two days, each culture was re-stimulated by an additional 1 μg/ml anti-CD40 plus 25 ng/ml IL-4. After two additional days in culture, for a total of 4 days of stimulation, viable cell counts were determined in each well of each plate using the MultiTox-Fluor Multiplex Cytotoxicity Assay (Promega, Inc.). For viability measurements, 100 microliters of the 2× MultiTox-Fluor Multiplex Cytotoxicity Reagent was added to each well and mixed before incubating at 37° C. for 30 min. Plates were then transferred to a fluorescence-capable multiplate reader and analyzed using 400 nm excitation and detection of 505 nm emission to measure the fraction of remaining live cells. As controls, wells containing either vehicle alone (DMSO) or 150 μM DIDS were included on each plate. Viability scores for each compound were determined as the fraction of live cells in the normal B-cell plate divided by the fraction of live cells in the corresponding AID knockout plate. Compounds that produce normal/AID knockout ratios at or below the level of the DIDS ratio were considered candidate compounds for further validation and testing. […] The initial screen identified 10 derivatives, BB5-6, BB1-6, BB1-7, BB2-6, BB2-5, BB5-39, BB4B-2, BB5-4, BB5-47, and BB8-1 (FIG. 10).

[2] = system: primary AID-knockout mouse splenocytes; assay: viability of activated AID-null splenocytes treated with NS-123 (Trypan blue); format: cell-based
Procedure: Primary mouse B-cells were isolated from spleens of adult AID−/− mice as described in Example 1. Cultures were established at a concentration of 1×10^6 cells per ml in RPMI-1640 medium with 10% FBS. Cultures were activated with anti-CD40 antibody plus IL-4, and treated with 4′-Bromo-3′ nitropropiophenone (NS-123) (purchased from Calbiochem; CAS No. 101860-83-7) at concentrations of 0.5, 5, 50, or 500 μM. Cells were re-activated by anti-CD40 plus IL-4 after two days in culture. Cell counts were determined after 1, 2, 3, and 4 days in culture by Trypan blue staining. At the concentration of 50 μM and 500 μM of NS-123 AID-null splenocytes were not viable. At the concentration of 5 μM of NS-123 the viability of the splenocytes is reduced when compared to untreated splenocytes (FIG. 12).
Primary AID-knockout mouse splenocytes were seeded in cultures at day 0 at a concentration of 1×10^6 cells/ml in RPMI-1640 medium supplemented with anti-CD40 plus IL-4 to activate B-cells. Individual cultures were supplemented with 0, 5, 10, 20, 30, 40, or 50 μM NS-123 and viable cells were counted after Trypan blue staining on days 1, 2, 3, and 4 (FIG. 13).

[3] = system: U251, HT-29 and A549 tumor cells; settings: cited from earlier work

Compound | viability score: fraction of live cells AID+/+ divided by fraction of live cells AID−/− (hit: ratio less than 1) [1] | further results
CN(C)S(=O)(=O)Nc1ccc(/C=C/c2ccc(NS(=O)(=O)N(C)C)cc2)cc1 [BB1-7, (E)-N,N′-(ethene-1,2-diylbis(4,1-phenylene))bis(dimethylamino-sulfonamide)] | identified | –
CC(C)S(=O)(=O)Nc1ccc(/C=C/c2ccc(N(C)C)cc2)cc1 [BB2-6, (E)-N-(4-(4-(dimethylamino)styryl)phenyl)propane-2-sulfonamide] | identified | –
CNC(=O)c1ccc(/C=C/c2ccc(C(=O)NC)cc2)cc1 [BB8-1, (E)-4,4′-(ethene-1,2-diyl)bis(N-methylbenzamide)] | identified | –
CC(C)S(=O)(=O)Nc1ccc(/C=C/c2ccc(NC(=S)NC3CC3)cc2S(=O)(=O)[O-])c(S(=O)(=O)[O-])c1.[Na+].[Na+] [BB5-39, sodium (E)-5-(3-cyclopropylthioureido)-2-(4-(1-methylethylsulfonamido)-2-sulfonatostyryl)benzenesulfonate] | identified | –
CC(=O)Nc1ccc(/C=C/c2ccc(NS(=O)(=O)C3CC3)cc2S(=O)(=O)[O-])c(S(=O)(=O)[O-])c1.[Na+].[Na+] [BB5-4, sodium (E)-5-acetamido-2-(4-(cyclopropanesulfonamido)-2-sulfonatostyryl)benzenesulfonate] | identified | –
CCNC(=O)Nc1ccc(/C=C/c2ccc(NC(=O)COC)cc2S(=O)(=O)[O-])c(S(=O)(=O)[O-])c1.[Na+].[Na+] [BB5-47, sodium (E)-5-(3-ethylureido)-2-(4-(2-methoxyacetamido)-2-sulfonatostyryl)benzenesulfonate] | identified | –
CC(C)NC(=O)Nc1ccc(CCc2ccc(NC(=O)NC(C)C)cc2S(=O)(=O)[O-])c(S(=O)(=O)[O-])c1.[Na+].[Na+] [BB4B-2, sodium 6,6′-(ethane-1,2-diyl)bis(3-(3-isopropylureido)benzenesulfonate)] | identified | –
CC(=O)Nc1ccc(/C=C/c2ccc(NS(=O)(=O)N(C)C)cc2S(=O)(=O)[O-])c(S(=O)(=O)[O-])c1.[Na+].[Na+] [BB5-6, sodium (E)-5-acetamido-2-(4-((N,N-dimethylsulfamoyl)amino)-2-sulfonatostyryl)benzenesulfonate] | identified | –
CC(C)S(=O)(=O)Nc1ccc(/C=C/c2ccc(NS(=O)(=O)C(C)C)cc2)cc1 [BB1-6, (E)-N,N′-(ethene-1,2-diylbis(4,1-phenylene))bis(propane-2-sulfonamide)] | identified | –
CN(C)c1ccc(/C=C/c2ccc(NS(=O)(=O)C3CC3)cc2)cc1 [BB2-5, (E)-N-(4-(4-(dimethylamino)styryl)phenyl)cyclopropanesulfonamide] | identified | –
CCC(=O)c1ccc(Br)c([N+](=O)[O-])c1 [NS-123, 1-(4-bromo-3-nitrophenyl)propan-1-one] | – | viability of AID-null splenocytes ([2]; 5 μM NS-123, compared to untreated splenocytes): reduced; viability of AID-null splenocytes ([2]; 50 μM NS-123, activated with anti-CD40 plus IL-4): not viable; viability of AID-null splenocytes ([2]; 500 μM NS-123, activated with anti-CD40 plus IL-4): not viable; LD50 ([2]; AID-null splenocytes, activated with anti-CD40 plus IL-4): 14 µM; concentration enhancing tumor growth-inhibitory effects of ionizing radiation ([3]; U251, HT-29 and A549 tumor cells): ~5 µM; effect on normal cells and organisms ([3]; normal human glial cells, Zebrafish embryos and nude mice): no apparent effect
